Experimental data taken from US20230372433A1, “NANOPARTICLE FOR ANTI-CANCER PEPTIDES AND USES THEREOF” (KING'S COLLEGE LONDON, priority 2020, published 2023).
Read-outs that look alike come from different tables or passages of the source.

How the values were obtained:
[1] = ANTS/DPX liposome leakage assay, 3POPC/1POPG vesicles; type: biochemical; conditions: for Peptide Concentration-induced 50% ANTS/DPX leakage at pH 4.8 (L/P) 3POPC/1POPG Vesicle / Peptide Concentration-induced 50% ANTS/DPX leakage at pH 7.4 (L/P) 3POPC/1POPG Vesicle: 0.5 mM vesicles
Description: (§1) In brief, 0.5 mM POPC vesicles (grey) or POPC:POPG vesicles (ratio 3:1, black) were incubated with peptide concentrations of 0, 0.02, 0.04, 0.08, 0.16, 0.32, 0.64, 1.25, 2.5, 5, 10, and 20 μM in each A) hydrochloric acid-adjusted phosphate buffered saline (1X, pH 4.8) and B) phosphate buffered saline (1X, pH 7.4).
(§2) The lipids 1-palmitoyl-2-oleoyl-sn-glycero-3-phosphocholine (POPC), 1-palmitoyl-2-oleoyl-snglycero-3-phospho-(1′-rac-glycerol) (POPG) were purchased from Avanti Polar Lipids and dissolved in chloroform. Large unilamellar vesicles (LUVs) were produced by extrusion through 100 nm pore filter using an extruder and filters purchased from Avanti Polar Lipids.
(§3) 5 mM ANTS (8-aminonaphthalene-1,3,6-trisulfonic acid, disodium salt) and 12.5 mM DPX (p-xylene-bis-pyridinium bromide) were entrapped in 0.1 μm diameter extruded vesicles with lipids. Gel filtration chromatography using a Sephadex G-100 (GE Healthcare Life Sciences Inc) was used to remove external free ANTS/DPX from LUVs with entrapped contents. LUVs were diluted to 0.5 mM and used to measure the leakage activity by addition of aliquots of peptides. Leakage was measured after 3 h incubation. 10% Triton was used as the positive control to measure the maximum leakage of the vesicle. Fluorescence emission spectra were recorded using excitation and emission wavelength of 350 nm and 510 nm for ANTS/DPX using a BioTek Synergy H1 Hybrid Multi-Mode Reader.
(§4) Table 4 illustrates peptide concentration-induced 50 ANTS/DPX liposome leakage. 0.5 mM POPC and 3POPC/1POPG vesicles were fixed and incubated with titrated peptide concentration (0, 0.02, 0.04, 0.08, 0.16, 0.32, 0.64, 1.25, 2.5, 5, 10, and 20 μM) each in phosphate buffered saline (1X, pH 7.4) and hydrochloric acid-adjusted phosphate buffered saline (1X, pH 4.8). The values are shown as lipid per peptide. IN-terminus is free, C-terminus: —W—NH2.

[2] = test system: U2OS (human bone osteosarcoma); assay: MTT cytotoxicity assay, U2OS; type: cell-based; conditions: 72 hr
[3] = test system: HMLER-shEcad (human breast cancer stem cell); assay: MTT cytotoxicity assay, HMLER-shEcad; type: cell-based; conditions: 72 hr, MTT; read-out: IC50 HMLER-shEcad
[4] = Tryptophan fluorescent binding assay, POPC vesicles; conditions: 50 μM peptide, PBS pH 7.4
Description: (§5) In brief, 50 μM peptides were fixed and incubated with titrated POPC vesicles (black) or 3POPC/1POPG vesicles (grey) at concentrations of 0, 12.5, 25, 50, 100, 250, 500, 1000, 2500, and 5000 μM in phosphate buffered saline (1X, pH 7.4). The lipid concentration that causes 50% peptide binding was determined using a tryptophan fluorescent binding assay and the values are shown as lipid per peptide.
as §2
(§6) Peptides (50 μM) and POPC/POPG LUVs (600 μM) were prepared in 10 mM phosphate buffer (pH 7.0). The solutions were incubated and measured after 60 minutes. Excitation was fixed at 280 nm (slit 9 nm) and emission was collected from 300 to 450 nm (slit 9 nm). The spectra were recorded using a Synergy H1 Hybrid Multi-Mode Reader (FIG. 3A) and Cytation™ 5 Cell Imaging Multi-Mode Reader (FIG. 2) from BioTek and were averaged over 3 scans.
(§7) Table 3 illustrates the lipid concentration-induced 50% peptide binding onto a liposome. 50 μM peptide was fixed and incubated with titrated lipid (POPC vesicles or 3POPC/1POPG vesicles) at concentrations of 0, 12.5, 25, 50, 100, 250, 500, 1000, 2500, and 5000 μM in phosphate buffered saline (1X, pH 7.4). The lipid concentration that causes 50% peptide binding was determined using tryptophan fluorescent binding assay and the values are shown as lipid per peptide. IN-terminus is free, C-terminus: —W—NH2.

[5] = test system: HMLER (human breast cancer bulk cell); assay: MTT cytotoxicity assay, HMLER; type: cell-based; conditions: 72 hr, MTT; read-out: IC50 HMLER
[6] = test system: MCF-10A (human breast epithelial cell); assay: cells
Text: HMLER (human mammary endothelial cancer cells), HMLER-shEcad (human mammary endothelial cancer stem cells), and MCF-10A (healthy human mammary endothelial) cells were maintained in Mammary Epithelial Cell Growth Medium (MEGM) with supplements and growth factors: bovine pituitary extract (BPE), hydrocortisone, human epidermal growth factor (hEGF), insulin, and gentamicin/amphotericin-B. HEK293T (human embryonic kidney cell), and U2OS (homo sapiens bone osteosarcoma) cells were maintained in Dulbecco's Modified Eagle's Medium (DMEM) with a final concentration of 10% fetal bovine serum. The cells were grown in T75 flask at 310 K in a humidified atmosphere containing 5% CO2.
The colourimetric MTT (3-(4,5-dimethylthiazol-2-yl)-2,5-diphenyltetrazolium bromide) assay was used to determine the toxicity of the anti-cancer peptides and conventional anti-cancer drugs. 5×10^3 cells were seeded in each well of a 96-well microplate. The cells were incubated overnight. Elevated concentrations of the compounds (0, 0.1, 0.2, 0.4, 0.8, 1.6, 3.1, 6.3, 12.5, 25, 50 and 100 μM) were added and incubated for 72 hr with a total volume 200 μL. The stock solutions of the compounds were prepared as 5 mM solutions in DMSO and diluted using media or in pure water. The final concentration of DMSO in each well was either 0.5% or 0% and this amount was present in the untreated control. After 72 hr, 20 μL of a 4 mg/mL solution of MTT in PBS was added to each well, and the plate was incubated for an additional 4 hr. The MEGM/MTT mixture was aspirated and 100 μL of DMSO was added to dissolve the resulting purple formazan crystals. The absorbance of the solutions in each well was read at 550 nm wavelength. Absorbance values were normalized to either DMSO-containing or non DMSO-containing control wells and plotted as concentration of test compound versus % cell viability. ICso values were interpolated from the resulting dose dependent curves.
The peptides were screened against several different human cell lines and their cytotoxicity were determined. Cell lines utilised include MCF-10A (human breast epithelial cell), HMLER (human breast cancer bulk cell), HMLER-shEcad (human breast cancer stem cell), HEK293T (human embryonic kidney cell), and U2OS (human bone osteosarcoma).

[7] = ANTS/DPX liposome leakage assay, POPC vesicles; type: biochemical; conditions: 0.5 mM vesicles
Description: as §1, §2, §3, §4

[8] = Tryptophan fluorescent binding assay, 3POPC/1POPG vesicles; conditions: 50 μM peptide, PBS pH 7.4
Description: as §5, §2, §6, §7

[9] = test system: HEK293T (human embryonic kidney cell); assay: MTT cytotoxicity assay, HEK293T; type: cell-based; conditions: 72 hr, MTT; read-out: IC50 HEK293T
[10] = read-out: IC50 MCF-10A, 72 hr, MTT

Row | Compound | Peptide Concentration-induced 50% ANTS/DPX leakage at pH 4.8 (L/P) 3POPC/1POPG Vesicle ([1]; pH 4.8) | Peptide Concentration-induced 50% ANTS/DPX leakage at pH 7.4 (L/P) 3POPC/1POPG Vesicle [1] | liposome leakage activity from anionic vesicle at pH 4.8 ([1]; compared with zwitterionic vesicle, pH 4.8) | IC50 [2] | IC50 [3] | Lipid Concentration-induced 50% Peptide Binding (L/P) POPC Vesicle [4] | IC50 [5] | IC50 [6] | Peptide Concentration-induced 50% ANTS/DPX leakage at pH 4.8 (L/P) POPC Vesicle [7] | Peptide Concentration-induced 50% ANTS/DPX leakage at pH 7.4 (L/P) POPC Vesicle [7] | Lipid Concentration-induced 50% Peptide Binding (L/P) 3POPC/1POPG Vesicle [8] | IC50 [9] | IC50 [6, 10]
1 | CC(C)C[C@H](NC(=O)CN)C(=O)N[C@@H](CC(C)C)C(=O)N[C@@H](CC(=O)O)C(=O)N[C@@H](CC(C)C)C(=O)N[C@@H](CC(C)C)C(=O)N[C@@H](CCC(=O)O)C(=O)N[C@@H](CC(C)C)C(=O)N[C@@H](CC(C)C)C(=O)N[C@@H](CC(C)C)C(=O)N[C@@H](CCCCN)C(=O)N[C@@H](C)C(=O)N[C@@H](C)C(=O)NCC(=O)N[C@@H](Cc1c[nH]c2ccccc12)C(N)=O [DEK] | 469 L/P | 773 L/P | relatively higher liposome leakage activity | 19.9 ± 2.65 µM | 0.7 ± 0.07 µM | 1.50 L/P | 1.14 ± 0.52 µM | ≥ 100 µM | 10 L/P | 747 L/P | 1.67 L/P | 6.8 ± 0.85 µM | –
2 | CC(C)C[C@H](NC(=O)CN)C(=O)N[C@@H](CC(C)C)C(=O)N[C@@H](CCC(=O)O)C(=O)N[C@@H](CC(C)C)C(=O)N[C@@H](CC(C)C)C(=O)N[C@@H](CCC(=O)O)C(=O)N[C@@H](CC(C)C)C(=O)N[C@@H](CC(C)C)C(=O)N[C@@H](CC(C)C)C(=O)N[C@@H](CCC(=O)O)C(=O)N[C@@H](C)C(=O)N[C@@H](C)C(=O)NCC(=O)N[C@@H](Cc1c[nH]c2ccccc12)C(N)=O [EEE] | 28 L/P | 346 L/P | – | 78.8 ± 5.3 µM | 10.6 ± 3.46 µM | 1.33 L/P | 6.25 ± 1.77 µM | ≥ 100 µM | 35 L/P | 143 L/P | 4.50 L/P | 50 µM | –
3 | GLDDLAKLLLKLAG [25B2, reference compound] | – | – | – | 54 ± 8.43 µM | 11.7 ± 0.49 µM | – | 8.36 ± 0.61 µM | – | – | – | – | 25.2 ± 2.19 µM | 26.7 ± 3.33 µM
4 | GLLDLLHLLLHAAG [DHH] | 98 L/P | 692 L/P | – | 55.9 ± 18.9 µM | 11.9 ± 0.14 µM | 0.67 L/P | 21.4 ± 2.47 µM | – | 106 L/P | 684 L/P | 0.28 L/P | 6.4 ± 0.42 µM | –
5 | GLLELLHLLLHAAG [EHH] | 80 L/P | 981 L/P | – | – | 16.1 ± 3.18 µM | 0.94 L/P | 25.4 ± 2.76 µM | – | 386 L/P | 1043 L/P | 0.69 L/P | 5.9 ± 0.14 µM | –
6 | GLLHLLELLLHAAG [HEH] | 24 L/P | 505 L/P | – | – | 11 ± 1.06 µM | 0.88 L/P | 28.6 ± 10.8 µM | – | 173 L/P | 995 L/P | 3.50 L/P | 8.8 ± 1.7 µM | –
7 | GLLHLLELLLKAAG [HEK] | 411 L/P | 386 L/P | – | – | 3.45 ± 2.19 µM | 0.44 L/P | 2.35 ± 1.06 µM | – | 97 L/P | 755 L/P | 0.46 L/P | 6.95 ± 1.63 µM | 29.8 ± 7.35 µM
8 | GLLHLLHLLLEAAG [HHE] | 113 L/P | 411 L/P | – | 53.2 ± 5.3 µM | 10.8 ± 0.78 µM | 1.00 L/P | 16.7 ± 2.26 µM | – | 143 L/P | 842 L/P | 0.75 L/P | 18.4 ± 3.75 µM | –
9 | GLLHLLHLLLHAAG [HHH] | 50 L/P | 469 L/P | – | – | 9.5 ± 0.99 µM | 0.46 L/P | 21.1 ± 6.93 µM | – | 173 L/P | 1133 L/P | 0.82 L/P | 30.6 ± 4.81 µM | 79 ± 11.3 µM
